Several values for one entry are separate records, joined by “and”; a condition that tells them apart may be missing. Equal entries are not always repeated. Where two headings read alike, the source gives them in different places.
Assays:
[1] = test system: MCF-7 breast carcinoma cell line; experiment: Cell growth proliferation inhibition, MTT assay, MCF7; format: cell-based, human; settings: MCF7 cells, 72 hours exposure
Method: (§1) When the cell are confluent, they are trypsinised and seeded in 48-well plates as monolayers for 24 h. […] The media is removed from the cell plates are the drug solutions applied in triplicate. A set of control cells, with media containing 1.0% DMSO, was left on each plate. The cells were exposed to the drugs for 72 hours. For […], (8) and (9), the Ru compounds are weighed, and dissolved directly in medium to 1600 μM, then serially diluted to make up 800 μ[…] solutions. Cell viability was determined using the standard MTT assay protocol, which allows the quantification of the mitochondrial activity in metabolically active cells. MTT (final concentration 0.2 mg/ml) was added to the cells for 2 h, then the culture medium was aspirated and the violet formazan precipitate dissolved in 0.1 N HCl in 2-propanol. The optical density, which is directly proportional to number of surviving cells, was quantified at 540 nm using a multiwell plate reader and the fraction of surviving cells was calculated from the absorbance of untreated control cells. Using the above protocol, the compounds were tested against human T47D and MCF-7 breast carcinoma, A549 lung carcinoma and HT-29 colon carcinoma cell lines (see FIG. 7).

[2] = test system: HT-29 colon carcinoma cell line; experiment: Cell growth proliferation inhibition, MTT assay, HT29; format: cell-based, human; settings: 72 hours exposure
Method: as §1

[3] = test system: A549 lung carcinoma cell line; experiment: Cell growth proliferation inhibition, MTT assay, A549; format: cell-based, human; settings: A549 cells, 72 hours exposure
Method: as §1

[4] = test system: T47D breast carcinoma cell line; experiment: Cell growth proliferation inhibition, MTT assay, T47D; format: cell-based, human; settings: T47D cells, 72 hours exposure
Method: as §1

[5] = test system: A2780/CDDP Human ovarian carcinoma resistant to Cistplatin; experiment: IC50 on tumor cell lines, MTT test, A2780/CDDP; format: cell-based; settings: for IC50: read-out: IC50 values A2780/CDDP
Method: Tumor cell lines derived from human and mouse turnours listed below were stabilised for in vitro propagation.
IC50 values are determined as follows: Tumour cells are incubated in the appropriate complete medium at 37° C. and under controlled atmosphere (5% CO2). Test compounds are tested at doses in the range of 100 nM and 100 μM. Cytotoxicity is determined by the MTT test, by measuring cell viability as the cell metabolic capacity to transform the tetrazolium salt of MTT in the blue formazan, by mitochondrial dehydrogenases; the blue colour is read at 570 nm with a spectrophotometer (Alley M C, Scudiero D A, Monks A, Hursey A L, Czerwinski M J, Fine D L, Abbott B J, Mayo J G, Shoemaker R H, Boyd M R. Feasibility of drug screening with panels of human tumor cell lines using a microculture tetrazolium assay. Cancer Res 48: 598-601, 1988. Mosmann T. Rapid colorimetric assay for cellular growth and survival: application to proliferation and cytotoxicity assays. J Immunol Methods 65: 55-63, 1983). Briefly, on day 0, in 96-well plates, 2-4000 cells/well/100 μl complete medium are plated. On day 1, test compounds are added at the test concentrations of 10^−7 M; 3*10^−7 M; 10^−6 M; 3*10^−6 M; 10^−5 M; 3*10^−5M; 10^−4 M. Each concentration is studied in triplicate. Cell viability, as determined by the MTT test is done on Day 4, after 3 days treatment. Each well is added with 10 μl/100 μl MTT (prepared previously by dissolving 5 mg/ml MTT in PBS, sterilized with filters at a cut-off of […] and stored at 4° C.). Plates are put in an incubator at 37° C. for 4 hrs, then medium is eliminated and each well is added with 200 μl DMSO (Sigma Chemical Co., USA). Plates are read with a spectrophotometer (Spectra count Packard Bell, Meriden, Conn., USA) at 570 nm wave length. IC50 is calculated with the GraphPad Prism4.
The reported values are the most representative of two separate experiments.

TLX5 lymphona cells = experiment: Survival time in an in vivo TLX5 lymphoma model; parameters: species or system CBA brown-grey inbred mice; settings: for % increase vs Controls (mean survival time) / Mean survival time (days ± SD): TLX5 cells i.p. day 0 in CBA mice, treatment i.p. at day 3, Compound 3 at 200 mg/kg, Cisplatin 8 mg/kg; for Activity in vivo (in words): TLX5 lymphoma in mice, i.p., compound 3 given as suspension in carboxymethylcellulose
Method: Tumour cells (TLX5, see above in Example 8) were derived from mouse tumours and stabilised for in vivo propagation. For the animal study, TLX5 lymphona cells were injected in the peritoneal cavity of CBA brown-grey inbred mice (Harlan-Nossan, San Giovanni al Natisone, Udine, Italy) at day 0. Test compounds were applied at day 3 at various doses, also by the intraperitoneal route, with each drug (test compound or reference drug) diluted in appropriate physiological solution and injected in a volume of 0.1 ml/10 g body weight.

[6] = test system: MIA-PaCa-2 Human pancreatic cancer; experiment: IC50 on tumor cell lines, MTT test, MIA PaCa-2; format: cell-based; settings: MIA PaCa-2, 3 days treatment, two separate experiments
Method: (§2) IC50 values are determined as follows: Tumour cells are incubated in the appropriate complete medium at 37° C. and under controlled atmosphere (5% CO2). Test compounds are tested at doses in the range of 100 nM and 100 μM. Cytotoxicity is determined by the MTT test, by measuring cell viability as the cell metabolic capacity to transform the tetrazolium salt of MTT in the blue formazan, by mitochondrial dehydrogenases; the blue colour is read at 570 nm with a spectrophotometer (Alley M C, Scudiero D A, Monks A, Hursey A L, Czerwinski M J, Fine D L, Abbott B J, Mayo J G, Shoemaker R H, Boyd M R. Feasibility of drug screening with panels of human tumor cell lines using a microculture tetrazolium assay. Cancer Res 48: 598-601, 1988. Mosmann T. Rapid colorimetric assay for cellular growth and survival: application to proliferation and cytotoxicity assays. […] Briefly, on day 0, in 96-well plates, 2-4000 cells/well/100 μl complete medium are plated. On day 1, test compounds are added at the test concentrations of 10^−7 M; 3*10^−7 M; 10^−6 M; 3*10^−6 M; 10^−5 M; 3*10^−5M; 10^−4 M. Each concentration is studied in triplicate. Cell viability, as determined by the MTT test is done on Day 4, after 3 days treatment. Each well is added with 10 μl/100 μl MTT (prepared previously by dissolving 5 mg/ml MTT in PBS, sterilized with filters at a cut-off of 0.22 mm and stored at 4° C.). Plates are put in an incubator at 37° C. for 4 hrs, then medium is eliminated and each well is added with 200 μl DMSO (Sigma Chemical Co., USA). Plates are read with a spectrophotometer (Spectra count Packard Bell, Meriden, Conn., USA) at 570 nm wave length. IC50 is calculated with the GraphPad Prism4.

[7] = test system: A2780 Human ovarian carcinoma; experiment: IC50 on tumor cell lines, MTT test, A2780; format: cell-based; settings: A2780, 3 days treatment, two separate experiments
Method: as §2

TLX5 Mouse lymphona = experiment: IC50 on tumor cell lines, MTT test, TLX5; format: cell-based; settings: TLX5, 3 days treatment, two separate experiments
Method: as §2

[8] = test system: HT-29 Human colorectal carcinoma; experiment: IC50 on tumor cell lines, MTT test, HT-29; format: cell-based; settings: HT-29, 3 days treatment, two separate experiments
Method: as §2

[9] = test system: H460M Human lung carcinoma/metastatic; experiment: IC50 on tumor cell lines, MTT test, H460M; format: cell-based; settings: 3 days treatment, two separate experiments
Method: as §2

[10] = test system: Glutathione-S-Transferase; experiment: Inhibition of Glutathione-S-Transferase activity in A549 cell lysates (glutathione-CDNB assay); format: biochemical, human; settings: A549 lung carcinoma cell lysates exposed to 100 μM drug solution for 90 mins
Method: Human A549 lung carcinoma cells, known to express high levels of Glutathione-S-Transferase, were routinely grown in flasks with DMEM medium containing 4.5 g/l glucose, 10% foetal calf serum (FCS) and antibiotics at 37° C. and 6% CO2. When the cells are confluent, they are trypsinised and concentrated in a centrifuge at 4° C. The cells were then diluted in phosphate-buffer saline (PBS) containing protease inhibitor cocktail (final concentration of 1 μg/ml) and homogenised by repeatedly freezing in liquid nitrogen and thawing (4 cycles). The homogenised cell samples were centrifuged at 4° C. and the supernatant, which is the cell lysates, was separated. The cell lysates are stored at −56° C.
The Ru compounds are weighed, and dissolved in DMSO to 100 mM. […] The cell lysates were exposed to the drug solutions for 90 mins. Control, containing the cell lysates with water/0.1% DMSO was also prepared.
The GST activity in the treated cell lysates was determined using the glutathione-CDNB (1-chloro-2,4-dinitrobenzene) assay. Glutathione and CDNB were dissolved in deionised water and ethanol respectively to make up a 100 mM solutions. A developing solution, containing 50 mM phosphate buffer solution (pH 6.5), was prepared and was added 1% v/v, the 100 mM glutathione and 100 mM CDNB solutions such that their final concentrations are both 1 mM. The developing solution was added to a 96-well plate at 200 μl per well, followed by the treated cell lysates at 2 μl per well. The absorbance at 340 nm was monitored continuously for 5 mins at 15 s intervals. The average slope of the change in absorbance was determined as a fraction of the control as the percentage of residual GST activity.

[11] = A2780/CDDP (Cisplatin-resistant), 3 days treatment, MTT test, two separate experiments

Compound | IC50 [1] | IC50 ([2]; HT29 cells) | IC50 [3] | IC50 [4] | IC50 [5, 11] | IC50 [6] | IC50 [7] | IC50 (TLX5 Mouse lymphona) | IC50 [8] | IC50 [9] | Residual GST activity (% control) [10] | other results
Cc1ccc(C(C)C)cc1.[Cl][Ru]([Cl])[PH]12CN3CN(CN(C3)C1)C2 [(η^6-cymene)Ru(PTA)Cl2, reference compound] | > 1600 µM | 436 µM | 1030 µM | 1060 µM | – | – | – | – | – | – | – | –
N.N.[Cl][Pt][Cl] [Cisplatin] | – | – | – | – | > 100 µM | 10.6 to 12.9 µM | 10.5 to 11.8 µM | 0.02 to 0.2 µM | 4.9 to 32.6 µM | 1.3 to 3 µM | – | % increase vs Controls (mean survival time) (TLX5 lymphona cells): 18%; Mean survival time (days ± SD) (TLX5 lymphona cells): 11.8 ± 1.79 days; Activity in vivo (in words) (TLX5 lymphona cells): effective
C1N2CN3CN1CP(C2)C3.C=C(CC)C(=O)c1ccc(OCC(=O)OCCc2ccccc2)c(Cl)c1Cl.[Cl][Ru][Cl] [Compound 4, (Ethacrynic-η^6:phenylethanoate)Ru(PTA)Cl2] | 105 µM | 106 µM | 66.7 µM | 6.28 µM | 36.7 to 38.7 µM | 81.5 to 92.7 µM | ~30 µM | 3.6 to 4.3 µM | 30 to 32.6 µM | 29.1 to 31.5 µM | 42.77 ± 13.9 % control | Activity against the Cisplatin-resistant cell line A2780/CDDP (in words) ([5]; A2780/CDDP, MTT test): active
C=C(CC)C(=O)c1ccc(OCC(=O)O)c(Cl)c1Cl [Ethacrynic acid, reference compound] | – | – | – | – | – | – | – | – | – | – | – | IC50 ([1]; Homo sapiens): 66 µM; IC50 ([5]; Homo sapiens, A2780/CDDP, 72 h): 84.3 to 97.6 µM; IC50 ([6]; Homo sapiens, 72 h): > 100 µM; IC50 ([7]; Homo sapiens, 72 h): 91.1 to 94.8 µM; IC50 ([2]; Homo sapiens, HT-29, HT29 cells): 73.5 µM; IC50 (TLX5 Mouse lymphona; Mus musculus, TLX-5, 72 h): 1.3 to 1.8 µM; IC50 ([8]; Homo sapiens, 72 h): 35.2 to 44 µM; IC50 ([3]; Homo sapiens): 50.7 µM; IC50 ([9]; Homo sapiens, 72 h): 58.1 to 63.3 µM; IC50 ([4]; Homo sapiens): 7.73 µM
(Ethacrynic-η^6:benzylamide)Ru(PTA)Cl2 [Compound 3] | 19.9 µM | 50.7 µM | 32.3 µM | 2.91 µM | 4.6 to 5.3 µM | 14.7 to 20.1 µM | 7.1 to 9.5 µM | 0.8 to 3 µM | 2.3 to 3.8 µM | 2.5 to 3.8 µM | 63.57 ± 2.0 % control | Activity against the Cisplatin-resistant cell line A2780/CDDP (in words) ([5]; A2780/CDDP, MTT test): active; % increase vs Controls (mean survival time) (TLX5 lymphona cells): 22%; Mean survival time (days ± SD) (TLX5 lymphona cells): 12.2 days and 12.2 ± 1.79 days; Activity in vivo (in words) (TLX5 lymphona cells): active in vivo
(η^6 cymene)Ru(PTA)(C2O4) [Compound 8] | > 1600 µM | 267 µM | 1130 µM | 1170 µM | – | – | – | – | – | – | – | –
(η^6-cymene)Ru(PTA)(C6H6O4) [Compound 9] | > 1600 µM | 265 µM | 1570 µM | 1090 µM | – | – | – | – | – | – | – | –
(η^6-cymene)RuCl2(ethacrynic-propylamide-imidazole) [Compound 6] | 10.7 µM | 39.1 µM | 34 µM | 4.8 µM | – | – | – | – | – | – | 23.70 ± 10.7 % control | –
RAPTA-T | – | – | – | – | > 100 µM | > 100 µM | > 100 µM | 64.1 to 92.9 µM | > 100 µM | > 100 µM | – | –
[(η^6-cymene)RuCl(PTA)(imidazolium-ethacrynic aide)]BF4^− [Compound 7] | 19.9 µM | 64.2 µM | 65.1 µM | 5.97 µM | – | – | – | – | – | – | 62.58 ± 8.8 % control | –

Source: patent publication US9018199B2, “Transition metal complexes for inhibiting resistance in the treatment of cancer and metastasis” (Ecole Polytechnique Federale de Lausanne (EPFL), priority 2006, dated 2015)
